Reference: PubChem BioAssay (NCI)
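Growth conditions: 96-well plates. Treatment: test compound, 48 hours, 5 concentrations. Analysis: linear interpolation between bracketing concentrations; unreached endpoints set to highest concentration. The concentration for full growth arrest is given as TGI.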

Legend:
Assay in all cases: growth of human tumour cells (NCI), 48 h
786-0 renal = system: 786-0 renal
A498 renal = system: A498 renal
A549 NSCLC = system: A549 NSCLC
ACHN renal = system: ACHN renal
BT-549 breast = system: BT-549 breast
CAKI-1 renal = system: CAKI-1 renal
CCRF-CEM leukemia = system: CCRF-CEM leukemia
COLO 205 colon = system: COLO 205 colon
DU-145 prostate = system: DU-145 prostate
EKVX NSCLC = system: EKVX NSCLC
HCC-2998 colon = system: HCC-2998 colon
HCT-116 colon = system: HCT-116 colon
HCT-15 colon = system: HCT-15 colon
HL-60(TB) leukemia = system: HL-60(TB) leukemia
HOP-62 NSCLC = system: HOP-62 NSCLC
HOP-92 NSCLC = system: HOP-92 NSCLC
HS 578T breast = system: HS 578T breast
HT29 colon = system: HT29 colon
IGROV1 ovarian = system: IGROV1 ovarian
K-562 leukemia = system: K-562 leukemia
KM12 colon = system: KM12 colon
LOX IMVI melanoma = system: LOX IMVI melanoma
M14 melanoma = system: M14 melanoma
MALME-3M melanoma = system: MALME-3M melanoma
MCF7 breast = system: MCF7 breast
MDA-MB-231 breast = system: MDA-MB-231 breast
MDA-MB-435 = system: MDA-MB-435
MDA-N = system: MDA-N
MOLT-4 leukemia = system: MOLT-4 leukemia
NCI-H226 lung = system: NCI-H226 lung
NCI-H23 lung = system: NCI-H23 lung
NCI-H460 lung = system: NCI-H460 lung
NCI-H522 lung = system: NCI-H522 lung
NCI/ADR-RES ovarian = system: NCI/ADR-RES ovarian
OVCAR-3 ovarian = system: OVCAR-3 ovarian
OVCAR-4 ovarian = system: OVCAR-4 ovarian
OVCAR-5 ovarian = system: OVCAR-5 ovarian
OVCAR-8 ovarian = system: OVCAR-8 ovarian
PC-3 prostate = system: PC-3 prostate
RPMI-8226 leukemia = system: RPMI-8226 leukemia
RXF 393 renal = system: RXF 393 renal
SF-268 CNS = system: SF-268 CNS
SF-295 CNS = system: SF-295 CNS
SF-539 CNS = system: SF-539 CNS
SK-MEL-2 melanoma = system: SK-MEL-2 melanoma
SK-MEL-28 melanoma = system: SK-MEL-28 melanoma
SK-MEL-5 melanoma = system: SK-MEL-5 melanoma
SK-OV-3 ovarian = system: SK-OV-3 ovarian
SN12C renal = system: SN12C renal
SNB-19 CNS = system: SNB-19 CNS
SNB-75 CNS = system: SNB-75 CNS
SR leukemia = system: SR leukemia
SW-620 colon = system: SW-620 colon
T-47D breast = system: T-47D breast
TK-10 renal = system: TK-10 renal
U251 CNS = system: U251 CNS
UACC-257 melanoma = system: UACC-257 melanoma
UACC-62 melanoma = system: UACC-62 melanoma
UO-31 renal = system: UO-31 renal

Q: Which results are given for `CC(C)=CCc1c(O)c(CC=C(C)C)c2oc(-c3ccc(O)cc3O)c(CC=C(C)C)c(=O)c2c1O`?
A: TGI (786-0 renal): 21.4 µM; TGI (A498 renal): 27.3 µM; TGI (A549 NSCLC): 24.2 µM; TGI (ACHN renal): 20.9 µM; TGI (BT-549 breast): 21.6 µM; TGI (CAKI-1 renal): 25.4 µM; TGI (CCRF-CEM leukemia): 5.83 µM; TGI (COLO 205 colon): > 59.5 µM; TGI (DU-145 prostate): 25.2 µM; TGI (EKVX NSCLC): 27.9 µM; TGI (HCC-2998 colon): 11.7 µM; TGI (HCT-116 colon): 17 µM; TGI (HCT-15 colon): 23.8 µM; TGI (HL-60(TB) leukemia): 21.7 µM; TGI (HOP-62 NSCLC): 23.4 µM; TGI (HOP-92 NSCLC): 23 µM; TGI (HS 578T breast): 45.6 µM; TGI (HT29 colon): 22.8 µM; TGI (IGROV1 ovarian): 23.6 µM; TGI (K-562 leukemia): 27.4 µM; TGI (KM12 colon): 16.7 µM; TGI (LOX IMVI melanoma): 22.5 µM; TGI (M14 melanoma): 22.5 µM; TGI (MALME-3M melanoma): 33.4 µM; TGI (MCF7 breast): 18.3 µM; TGI (MDA-MB-231 breast): 27.6 µM; TGI (MDA-MB-435): 16.7 µM; TGI (MDA-N): 20.4 µM; TGI (MOLT-4 leukemia): 14.6 µM; TGI (NCI-H226 lung): 47.6 µM; TGI (NCI-H23 lung): 22 µM; TGI (NCI-H460 lung): 17.8 µM; TGI (NCI-H522 lung): 24.9 µM; TGI (NCI/ADR-RES ovarian): 53.4 µM; TGI (OVCAR-3 ovarian): 19.6 µM; TGI (OVCAR-4 ovarian): 18.1 µM; TGI (OVCAR-5 ovarian): 28.3 µM; TGI (OVCAR-8 ovarian): 19.7 µM; TGI (PC-3 prostate): 18.4 µM; TGI (RPMI-8226 leukemia): 10.9 µM; TGI (RXF 393 renal): 14.6 µM; TGI (SF-268 CNS): > 53.2 µM; TGI (SF-295 CNS): 20.3 µM; TGI (SF-539 CNS): 32.7 µM; TGI (SK-MEL-2 melanoma): 12.8 µM; TGI (SK-MEL-28 melanoma): 26.6 µM; TGI (SK-MEL-5 melanoma): 23 µM; TGI (SK-OV-3 ovarian): 26.2 µM; TGI (SN12C renal): 21.1 µM; TGI (SNB-19 CNS): 25.6 µM; TGI (SNB-75 CNS): 22.7 µM; TGI (SR leukemia): 9.88 µM; TGI (SW-620 colon): 23.3 µM; TGI (T-47D breast): 12.8 µM; TGI (TK-10 renal): 21.2 µM; TGI (U251 CNS): 22.8 µM; TGI (UACC-257 melanoma): 25.6 µM; TGI (UACC-62 melanoma): 20.3 µM; TGI (UO-31 renal): 21.1 µM
